# Laboratory results published in patent US10105357B2, “Indication of antibiotic drugs for preparation of cancer inhibition pharmaceutical composition” (LAUNX BIOMEDICAL CO., LTD., priority 2014, dated 2018).
# Structures can show the parent of a compound that is named as a salt. Where two headings read alike, the source gives them in different places.
# Assays:
# Format in all cases: cell-based, human
# cancer cell lines = experiment: Cell viability analysis (WST-1) on cancer cell lines; settings: drug 10 μM, 72 hours, WST-1; Table 3
# [1] = tested on: HI650 (Lung Adenocarcinoma); experiment: Cell viability analysis, lung cancer HI650; settings: Homo sapiens, NCI-H1650, 72 h
# [2] = tested on: A549 (Lung Adenocarcinoma); experiment: Cell viability analysis, lung cancer A549; settings: Homo sapiens, A549, 72 h
# [3] = tested on: AGS (Gastric Adenocarcinoma); experiment: Cell viability analysis, gastric cancer AGS; settings: Homo sapiens, 72 h
# [4] = tested on: MKN-45 (Gastric Adenocarcinoma); experiment: Cell viability analysis, gastric cancer MKN-45; settings: Homo sapiens, MKN-45, 72 h
# [5] = tested on: HepG2 (Hepatocellular Carcinoma); experiment: Cell viability analysis, hepatic cancer HepG2; settings: Homo sapiens, HepG2, 72 h
# [6] = tested on: LoVo (Colorectal Adenocarcinoma); experiment: Cell viability analysis, colon cancer LoVo; settings: Homo sapiens, LoVo, 72 h, read-out: cell viability (survival rate), LoVo, drug 10 μM, 72 hours, WST-1, OD450 nm
# [7] = tested on: A375 (Amelanotic Melanoma); experiment: Cell viability analysis, skin cancer A375; settings: Homo sapiens, A-375, 72 h
# [8] = tested on: HeLa (Cervix Adenocarcinoma); experiment: Cell viability analysis, cervical cancer HeLa; settings: Homo sapiens, HeLa, 72 h
# [9] = tested on: PC3 (p53−) (Prostate Adenocarcinoma); experiment: Cell viability analysis, prostate cancer PC3; settings: Homo sapiens, 72 h
# [10] = tested on: TSGH-8301 (Urinary Bladder Carcinoma); experiment: Cell viability analysis, bladder cancer TSGH-8301; settings: Homo sapiens, 72 h
# [11] = tested on: MCF7 (Mammary Gland, Adenocarcinoma); experiment: Cell viability analysis, breast cancer MCF7; settings: Homo sapiens, MCF7, 72 h
# [12] = tested on: HL-60 (Acute Promyelocytic Leukemia); experiment: Cell viability analysis, leukemia HL-60; settings: Homo sapiens, HL-60, 72 h
# [13] = read-out: cell viability (survival rate), H1650, drug 10 μM, 72 hours, WST-1, OD450 nm
# [14] = read-out: cell viability (survival rate), A549, drug 10 μM, 72 hours, WST-1, OD450 nm
# [15] = read-out: cell viability (survival rate), AGS, drug 10 μM, 72 hours, WST-1, OD450 nm
# [16] = read-out: cell viability (survival rate), MKN-45, drug 10 μM, 72 hours, WST-1, OD450 nm
# [17] = read-out: cell viability (survival rate), HepG2, drug 10 μM, 72 hours, WST-1, OD450 nm
# [18] = read-out: cell viability (survival rate), A375, drug 10 μM, 72 hours, WST-1, OD450 nm
# [19] = read-out: cell viability (survival rate), HeLa, drug 10 μM, 72 hours, WST-1, OD450 nm
# [20] = read-out: cell viability (survival rate), PC3, drug 10 μM, 72 hours, WST-1, OD450 nm
# [21] = read-out: cell viability (survival rate), TSGH, drug 10 μM, 72 hours, WST-1, OD450 nm
# [22] = read-out: cell viability (survival rate), MCF7, drug 10 μM, 72 hours, WST-1, OD450 nm
# [23] = read-out: cell viability (survival rate), HL-60, drug 10 μM, 72 hours, WST-1, OD450 nm
# [24] = drug 10 μM, 72 hours, WST-1, OD450 nm, read-out: cell viability (survival rate), H1650
# [25] = drug 10 μM, 72 hours, WST-1, OD450 nm, read-out: cell viability (survival rate), A549
# [26] = drug 10 μM, 72 hours, WST-1, OD450 nm, read-out: cell viability (survival rate), AGS
# [27] = drug 10 μM, 72 hours, WST-1, OD450 nm, read-out: cell viability (survival rate), MKN-45
# [28] = drug 10 μM, 72 hours, WST-1, OD450 nm, read-out: cell viability (survival rate), HepG2
# [29] = drug 10 μM, 72 hours, WST-1, OD450 nm, read-out: cell viability (survival rate), A375
# [30] = drug 10 μM, 72 hours, WST-1, OD450 nm, read-out: cell viability (survival rate), HeLa
# [31] = drug 10 μM, 72 hours, WST-1, OD450 nm, read-out: cell viability (survival rate), PC3
# [32] = drug 10 μM, 72 hours, WST-1, OD450 nm, read-out: cell viability (survival rate), TSGH
# [33] = drug 10 μM, 72 hours, WST-1, OD450 nm, read-out: cell viability (survival rate), MCF7
# [34] = drug 10 μM, 72 hours, WST-1, OD450 nm, read-out: cell viability (survival rate), HL-60
SMILES,inhibition effect on different cancer cell lines (cancer cell lines),"viability at 10 µM [1, 13]","viability at 10 µM [2, 14]","viability at 10 µM [3, 15]","viability at 10 µM [4, 16]","viability at 10 µM [5, 17]",viability at 10 µM [6],"viability at 10 µM [7, 18]","viability at 10 µM [8, 19]","viability at 10 µM [1, 24]","viability at 10 µM [2, 25]","viability at 10 µM [3, 26]","viability at 10 µM [4, 27]","viability at 10 µM [5, 28]","viability at 10 µM [7, 29]","viability at 10 µM [8, 30]","viability at 10 µM [9, 31]","viability at 10 µM [10, 32]","viability at 10 µM [11, 33]","viability at 10 µM [12, 34]",other results
[H]/N=C(/N)N[C@H]1[C@H](O)[C@@H](O)[C@H](O[C@@H]2O[C@@H](C)[C@](O)(C=O)[C@H]2O[C@@H]2O[C@@H](CO)[C@H](O)[C@@H](O)[C@@H]2NC)[C@@H](N/C(N)=N\[H])[C@@H]1O [Streptomycin sulfate],significant inhibition effect,40.6%,57.3%,65.5%,68.7%,84.5%,46.6%,77.5%,88.9%,–,–,–,–,–,–,–,–,–,–,–,"viability at 10 µM [9, 20]: 59.1%; viability at 10 µM [10, 21]: 23.3%; viability at 10 µM [11, 22]: 72%; viability at 10 µM [12, 23]: 93.3%"
"CO[C@H]1/C=C/O[C@@]2(C)Oc3c(C)c(O)c4c(c3C2=O)C2=NC3(CCN(CC(C)C)CC3)NC2=C(NC(=O)/C(C)=C\C=C\[C@H](C)[C@H](O)[C@@H](C)[C@@H](O)[C@@H](C)[C@H](OC(C)=O)[C@@H]1C)C4=O [Rifabutin (Mycobutin), Rifabutin]",significant inhibition effect,88.2%,53.1%,115%,62.4%,148%,104%,84%,52.8%,–,–,–,–,–,–,–,–,–,–,–,"viability at 10 µM [9, 20]: 72.6%; viability at 10 µM [10, 21]: 82.5%; viability at 10 µM [11, 22]: 48.8%; viability at 10 µM [12, 23]: 100%"
CCCCCCCCCCCC[N+](C)(C)CCOc1ccccc1 [Domiphen Bromide],significant inhibition effect,–,–,–,–,–,48.7%,–,–,46.5%,28.7%,32.5%,44.4%,62.1%,36.3%,38%,38.9%,37.3%,31.3%,30%,–
"Cc1ccnc2c1NC(=O)c1cccnc1N2C1CC1 [Nevirapine (Viramune), Nevirapine]",significant inhibition effect,–,–,–,–,–,85.7%,–,–,89.7%,45.7%,115%,68.3%,85.5%,66.8%,58.9%,84.1%,103%,38.5%,98.7%,–
Oc1c(Cl)cc(Cl)c2cccnc12 [Chloroxine],significant inhibition effect,77.1%,120%,31.1%,52.7%,93.9%,85.5%,72.5%,71.7%,–,–,–,–,–,–,–,–,–,–,–,"viability at 10 µM [9, 20]: 87.2%; viability at 10 µM [10, 21]: 62.7%; viability at 10 µM [11, 22]: 68.7%; viability at 10 µM [12, 23]: 50.5%"
O=C(O)c1cn(-c2ccc(F)cc2)c2cc(N3CCNCC3)c(F)cc2c1=O [Sarafloxacin HCl],significant inhibition effect,–,–,–,–,–,106%,–,–,58.9%,98.6%,88%,75.3%,91.1%,97.8%,81%,80.9%,122%,107%,112%,–
"CC(C)(C)c1nc(-c2cccc(NS(=O)(=O)c3c(F)cccc3F)c2F)c(-c2ccnc(N)n2)s1 [Dabrafenib (GSK2118436), Dabrafenib]",significant inhibition effect,–,–,–,–,–,70.5%,–,–,73.6%,134%,90.1%,98.7%,91.3%,42.1%,78.5%,100%,90.5%,94.1%,72.9%,–
